What was measured:
[1] = molecular target: T1, cS1P5 receptor (Canis lupus familiaris, UniProt A0A8I3Q0H0); experiment: S1P ligand binding assay with transfected CHO cells expressing the cS1P5 receptor; parameters: species or system Canis (dog); details: 33P-S1P, 60 minutes at room temperature, FIG. 3
Description: The transfected CHO cells from Example 2 expressing the cS1P5 receptor were evaluated for the ability of the cS1P5 receptor expressed in the cells to properly integrate into the cell membrane and bind S1P.
Transfected CHO cells from Example 2 were harvested with enzyme-free dissociation solution (Specialty Media, Lavallette, N.J.). The cells were washed once in cold PBS and suspended in S1P binding buffer (50 mM HEPES-Na, pH 7.5, 5mM MgCl2, 1 mM CaCl2, 0.5% FAF-BSA). ^33P-S1P was synthesized enzymatically from γ^33P-ATP and sphingosine using a crude extract with sphingosine kinase activity in a reaction mix containing 50 mM KH2PO4, 1 mM mercaptoethanol, 1 mM Na3VO4, 25 mM KF, 2 mM semicarbazide, 1 mM Na2EDTA, 5 mM MgCl2, […], 0.1% TritonX-114, and 1 mCi γ^33P-ATP (NEN; specific activity 2000 Ci/mmol). Reaction products were extracted with butanol and ^33P-sphingosine-1-phosphate was purified by HPLC.
^33P-S1P (0.1 uCi/ml) was sonicated with 0.2 nM sphingosine-1-phosphate dissolved in binding buffer; 100 μL of the mixture was added to 100 μL cells (1×10^5). Binding was performed for 60 minutes at room temperature. […] After drying the filter plates for 30 minutes, 50 μL of MICROSCINT 20 was added to each well and binding was measured with a Packard Top Count. Non-specific binding was defined as the amount of radioactivity remaining in the presence of 200 nM cold S1P.

[2] = molecular target: T1, cS1P5 receptor; experiment: 35S-GTPγS binding assay with membranes from transfected CHO cells expressing the cS1P5 receptor; assay type: biochemical, Canis (dog); details: 5 μM GDP, 100 pM 35S-GTPγS, one hour at room temperature, FIG. 4, read-out: EC50 (35S-GTPγS binding, coupling GTP to Gα)
Description: Functional coupling of S1P5 receptor to G proteins was measured in a ^35S-GTPγS binding assay. Membranes were prepared from transfected cells by homogenization in ice cold 20 mM HEPES pH 7.4, 10 mM EDTA using a Kinematica polytron (setting 5, for 10 seconds). Homogenates were centrifuged at 48,000×g for 15 minutes at 4° C. and the pellet suspended in 20 mM HEPES pH 7.4, 0.1 mM EDTA. Following a second centrifugation, the final pellet was suspended in 20 mM HEPES pH 7.4, 100 mM NaCl, 10 mM MgCl2. Membranes were incubated in 200 μL with 5 μM GDP, various concentrations of S1P (sonicated in 1% BSA), and 100 pM ^35S-GTPγS (NEN; specific activity 1250 Ci/mmol) in 96 well microtiter dishes. Binding was performed for one hour at room temperature, and terminated by harvesting the membranes onto GF/B filter plates with a Packard Filtermate Universal Harvester. After drying the filter plates for 30 min, 40 μL of MICROSCINT 20 was added to each well and binding was measured on a Packard Top Count scintillation counter.

Q: Which results are given for `CCCCCCCCCCCCC/C=C/[C@@H](O)[C@@H](N)COP(=O)(O)O` [S1P, sphingosine-1-phosphate]?
A: EC50 [1]: ~210 pM; EC50 [2]: ~790 pM

— patent US20090191578A1, “Canis sphingosine 1-phosphate receptor isoform 5” (MERCK & CO., INC, priority 2004, published 2009)
